According to the supplement of paper PMC11061612:

What was measured:
Experiment in all cases: Bliss excess, mean over the matrix (fraction); higher = more synergy
[1] = system: A172 (Glioblastoma)
Method in brief: (§1)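 Cell lines grown in DMEM/F12 or RPMI with 10% FBS were plated in 1536-well plates and held 24 hours at 37°C, 5% CO2 before 72 hours of exposure to two-drug dose matrices, with DMSO typically at 0.2%. CellTiter-Glo 2.0 luminescence gave viability, which was converted to inhibition. Vehicle wells were set to 0 and blank wells to 1. Combination Emax is the second-highest inhibition in the matrix, and Bliss excess is the observed combination effect minus the expected EA + EB − EA·EB, where EA and EB are the single-agent effects.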

[2] = system: SNU-61 (Colorectal Carcinoma)
Method in brief: as §1

[3] = system: D-392MG (Glioblastoma)
Method in brief: as §1

[4] = system: HCC1143 (Breast Carcinoma)
Method in brief: as §1

[5] = system: GDM-1 (Acute Myeloid Leukemia)
Method in brief: as §1

[6] = system: MCF7 (Breast Carcinoma)
Method in brief: as §1

[7] = system: 647-V (Bladder Carcinoma)
Method in brief: as §1

[8] = system: MSTO-211H (Mesothelioma)
Method in brief: as §1

[9] = system: HCC-827 (Lung Adenocarcinoma)
Method in brief: as §1

[10] = system: RCC10RGB (Kidney Carcinoma)
Method in brief: as §1

[11] = system: SNG-M (Endometrial Carcinoma)
Method in brief: as §1

[12] = system: MES-SA (Other Solid Carcinomas)
Method in brief: as §1

[13] = system: SK-LMS-1 (Other Solid Carcinomas)
Method in brief: as §1

[14] = system: SKN-3 (Head and Neck Carcinoma)
Method in brief: as §1

[15] = system: EFM-192A (Breast Carcinoma)
Method in brief: as §1

[16] = system: NOMO-1 (Acute Myeloid Leukemia)
Method in brief: as §1

[17] = system: HLE (Hepatocellular Carcinoma)
Method in brief: as §1

[18] = system: YT (Other Blood Carcinomas)
Method in brief: as §1

[19] = system: TYK-nu (Ovarian Carcinoma)
Method in brief: as §1

[20] = system: H4 (Low Grade Glioma)
Method in brief: as §1

| Compound | Bliss excess [1] | Bliss excess [2] | Bliss excess [3] | Bliss excess [4] | Bliss excess [5] | Bliss excess [6] | Bliss excess [7] | Bliss excess [8] | Bliss excess [9] | Bliss excess [10] | Bliss excess [11] | Bliss excess [12] | Bliss excess [13] | Bliss excess [14] | Bliss excess [15] | Bliss excess [16] | Bliss excess [17] | Bliss excess [18] | Bliss excess [19] | Bliss excess [20] |
| --- | --- | --- | --- | --- | --- | --- | --- | --- | --- | --- | --- | --- | --- | --- | --- | --- | --- | --- | --- | --- |
| CN(C)CCCOc1ccc(-c2ccc3ncc4c(c3c2)n(C2CCOCC2)c(=O)n4C)cn1 [AZD0156] + C=CCn1c(=O)c2cnc(Nc3ccc(N4CCN(C)CC4)cc3)nc2n1-c1cccc(C(C)(C)O)n1 [AZD1775] (first compound max 1 µM, partner max 1 µM) | -0.0431 | -0.0277 | -0.0461 | -0.0802 | -0.0566 | -0.0338 | 0.0001 | 0.0099 | 0.0075 | -0.0775 | -0.0562 | 0.0372 | -0.0203 | -0.0276 | -0.0567 | 0.004 | -0.026 | -0.0273 | -0.0836 | -0.0516 |
| CN(C)CCCOc1ccc(-c2ccc3ncc4c(c3c2)n(C2CCOCC2)c(=O)n4C)cn1 [AZD0156] + CCN(CCO)CCCOc1ccc2c(Nc3cc(CC(=O)Nc4cccc(F)c4)[nH]n3)ncnc2c1 [AZD2811] (first compound max 1 µM, 7x7, partner max 1 µM) | 0.0239 | -0.0339 | -0.0556 | 0.0372 | -0.0232 | -0.0114 | 0.0365 | -0.0098 | -0.0088 | -0.039 | -0.0218 | 0.0836 | 0.0032 | -0.0239 | -0.0243 | 0.0759 | 0.0189 | 0.0041 | -0.0179 | -0.0077 |
| CN(C)CCCOc1ccc(-c2ccc3ncc4c(c3c2)n(C2CCOCC2)c(=O)n4C)cn1 [AZD0156] + C[C@@H]1COCCN1C2=NC(=NC(=C2)C3(CC3)[S@](=N)(=O)C)C4=C5C=CNC5=NC=C4 [AZD6738] (first compound max 1 µM, 7x7, partner max 10 µM) | 0.024 | -0.0047 | -0.0549 | 0.0323 | -0.0439 | 0.0578 | 0.0039 | 0.0418 | -0.003 | -0.0129 | 0.0138 | 0.0509 | 0.0122 | 0.0368 | 0.0073 | 0.0095 | 0.0261 | 0.0104 | -0.0143 | -0.0404 |
| CN(C)CCCOc1ccc(-c2ccc3ncc4c(c3c2)n(C2CCOCC2)c(=O)n4C)cn1 [AZD0156] + O=C(c1cc(Cc2n[nH]c(=O)c3ccccc23)ccc1F)N1CCN(C(=O)C2CC2)CC1 [Olaparib] (first compound max 3 µM, partner max 3 µM) | 0.0378 | – | -0.0585 | -0.0194 | 0.109 | 0.0509 | 0.0562 | -0.0685 | -0.0328 | -0.0356 | -0.0267 | 0.142 | 0.0373 | -0.0165 | -0.0026 | 0.0887 | -0.0129 | 0.0265 | 0.0468 | 0.179 |
| C=CCn1c(=O)c2cnc(Nc3ccc(N4CCN(C)CC4)cc3)nc2n1-c1cccc(C(C)(C)O)n1 [AZD1775] + C1CN(CCC1(C(=O)N[C@@H](CCO)C2=CC=C(C=C2)Cl)N)C3=NC=NC4=C3C=CN4 [Capivasertib] (first compound max 3 µM, partner max 3 µM) | -0.0099 | – | 0.0315 | -0.05 | -0.0422 | 0.0075 | 0.0493 | -0.0797 | 0.0073 | -0.0144 | -0.0575 | – | -0.087 | -0.0344 | -0.0004 | 0.0076 | -0.0734 | -0.0938 | -0.0475 | -0.0472 |
| C=CCn1c(=O)c2cnc(Nc3ccc(N4CCN(C)CC4)cc3)nc2n1-c1cccc(C(C)(C)O)n1 [AZD1775] + C[C@@H]1COCCN1C2=NC(=NC(=C2)C3(CC3)[S@](=N)(=O)C)C4=C5C=CNC5=NC=C4 [AZD6738] (first compound max 1 µM, partner max 10 µM) | 0.0433 | -0.051 | -0.04 | 0.0108 | 0.0041 | 0.0332 | 0.0662 | 0.0418 | -0.0286 | -0.137 | -0.0128 | 0.01 | 0.0039 | 0.0234 | -0.0053 | 0.0261 | -0.0148 | 0.0305 | -0.0711 | -0.0949 |
| C=CCn1c(=O)c2cnc(Nc3ccc(N4CCN(C)CC4)cc3)nc2n1-c1cccc(C(C)(C)O)n1 [AZD1775] + O=C(c1cc(Cc2n[nH]c(=O)c3ccccc23)ccc1F)N1CCN(C(=O)C2CC2)CC1 [Olaparib] (first compound max 1 µM, partner max 10 µM) | -0.0226 | -0.0289 | -0.0369 | -0.0675 | 0.0017 | 0.003 | 0.0046 | -0.0203 | -0.042 | -0.0166 | -0.0105 | -0.0694 | 0.0065 | -0.0512 | -0.0307 | -0.027 | -0.0567 | -0.008 | -0.108 | -0.12 |
| CCN(CCO)CCCOc1ccc2c(Nc3cc(CC(=O)Nc4cccc(F)c4)[nH]n3)ncnc2c1 [AZD2811] + C=CCn1c(=O)c2cnc(Nc3ccc(N4CCN(C)CC4)cc3)nc2n1-c1cccc(C(C)(C)O)n1 [AZD1775] (first compound max 1 µM, partner max 1 µM) | -0.0033 | 0.0108 | -0.0945 | 0.0147 | -0.0484 | 0.0165 | 0.0491 | 0.0387 | 0.0272 | -0.0716 | -0.0356 | 0.0752 | 0.0502 | -0.0154 | -0.0883 | 0.0412 | 0.09 | 0.0367 | -0.0586 | -0.0637 |
| CCN(CCO)CCCOc1ccc2c(Nc3cc(CC(=O)Nc4cccc(F)c4)[nH]n3)ncnc2c1 [AZD2811] + C[C@@H]1COCCN1C2=NC(=NC(=C2)C3(CC3)[S@](=N)(=O)C)C4=C5C=CNC5=NC=C4 [AZD6738] (first compound max 1 µM, 7x7, partner max 10 µM) | -0.0252 | -0.0434 | -0.0537 | -0.0291 | -0.0749 | -0.0565 | 0.0177 | -0.0279 | -0.0856 | -0.0472 | -0.0273 | -0.0328 | -0.0249 | -0.0167 | -0.0201 | -0.0118 | 0.0179 | -0.0204 | -0.0244 | -0.0536 |
| CN(CCO)CC[C@H](CSc1ccccc1)Nc1ccc(S(=O)(=O)NC(=O)c2ccc(N3CCC([C@@H](O)c4ccccc4-c4ccc(Cl)cc4)CC3)cc2)cc1S(=O)(=O)C(F)(F)F [AZD4320] + CCN(CCO)CCCOc1ccc2c(Nc3cc(CC(=O)Nc4cccc(F)c4)[nH]n3)ncnc2c1 [AZD2811] (first compound max 1 µM, 7x7, partner max 1 µM) | 0.0322 | -0.0262 | 0.114 | -0.0091 | 0.0067 | 0.0189 | 0.114 | 0.0471 | -0.0596 | -0.0539 | 0.0407 | 0.0657 | 0.0619 | -0.0333 | – | 0.208 | 0.0338 | -0.0344 | -0.0086 | 0.0036 |
| CN(CCO)CC[C@H](CSc1ccccc1)Nc1ccc(S(=O)(=O)NC(=O)c2ccc(N3CCC([C@@H](O)c4ccccc4-c4ccc(Cl)cc4)CC3)cc2)cc1S(=O)(=O)C(F)(F)F [AZD4320] + Cn1cnc2c(F)c(Nc3ccc(Br)cc3Cl)c(C(=O)NOCCO)cc21 [Selumetinib] (first compound max 1 µM, 7x7, partner max 3 µM) | -0.0071 | 0.0604 | -0.0474 | 0.0112 | 0.0223 | 0.0377 | 0.0631 | 0.0146 | -0.0011 | -0.0159 | 0.0038 | 0.0404 | 0.0293 | 0.0268 | – | 0.143 | -0.0142 | -0.0834 | -0.0839 | -0.0002 |
| Cc1c2c(nn1C)CSCc1cc(n(C)n1)CSc1cc(c3ccccc3c1)OCCCc1c(C(=O)O)n(C)c3c-2c(Cl)ccc13 [AZD5991] + C[C@@H]1COCCN1C2=NC(=NC(=C2)C3(CC3)[S@](=N)(=O)C)C4=C5C=CNC5=NC=C4 [AZD6738] (first compound max 1 µM, 7x7, partner max 10 µM) | -0.0012 | 0.0435 | -0.0053 | 0.0032 | 0.0863 | 0.0286 | 0.0802 | 0.0032 | – | 0.0332 | 0.0516 | 0.0653 | -0.0471 | 0.0678 | 0.0335 | -0.0006 | 0.0075 | -0.0498 | -0.0265 | 0.0274 |
| CS(=O)(=O)CCNCc1ccc(-c2ccc3ncnc(Nc4ccc(OCc5cccc(F)c5)c(Cl)c4)c3c2)o1 [Lapatinib] + Cn1cnc2c(F)c(Nc3ccc(Br)cc3Cl)c(C(=O)NOCCO)cc21 [Selumetinib] (first compound max 10 µM, 7x7, partner max 10 µM) | – | – | -0.0383 | – | – | – | – | -0.0401 | – | – | -0.071 | – | 0.0047 | – | – | -0.0346 | 0.0068 | 0.0147 | – | -0.0159 |
| CS(=O)(=O)CCNCc1ccc(-c2ccc3ncnc(Nc4ccc(OCc5cccc(F)c5)c(Cl)c4)c3c2)o1 [Lapatinib] + NC1(c2ccc(-c3nc4ccn5c(=O)[nH]nc5c4cc3-c3ccccc3)cc2)CCC1 [MK-2206] (first compound max 10 µM, 7x7, partner max 10 µM) | – | – | -0.0411 | -0.0213 | – | -0.0702 | – | -0.0466 | – | – | 0.0254 | – | 0.0031 | -0.0508 | – | 0.0427 | -0.0136 | -0.0321 | -0.0165 | 0.0054 |
| CCc1c2c(nc3ccc(O)cc13)-c1cc3c(c(=O)n1C2)COC(=O)[C@]3(O)CC [SN-38] + O=C(c1cc(Cc2n[nH]c(=O)c3ccccc23)ccc1F)N1CCN(C(=O)C2CC2)CC1 [Olaparib] (first compound max 0.3 µM, 7x7, partner max 10 µM) | 0.0639 | – | 0.0711 | – | – | 0.0115 | – | 0.0376 | 0.052 | – | 0.0565 | – | 0.0057 | – | – | 0.0544 | 0.0335 | -0.0409 | -0.0067 | 0.0958 |
| Cc1nc(-c2cn3c(n2)-c2ccc(-c4cnn(C(C)(C)C(N)=O)c4)cc2OCC3)n(C(C)C)n1 [Taselisib] + O=C(Nc1ccc2[nH]nc(-c3ccncc3)c2c1)[C@@H]1CCN(CC(=O)N2CCN(c3ccc(-c4ncccn4)cc3)CC2)C1 [SCH772984] (first compound max 10 µM, 7x7, partner max 5 µM) | – | – | 0.0272 | – | – | – | – | 0.131 | – | – | -0.0211 | – | 0.106 | – | – | 0.141 | 0.0366 | -0.0084 | – | -0.0007 |
